Holding throughout (assay type): biochemical
The target of one assay is κ-opioid receptor (Homo sapiens (Human), UniProt P41145). As to the kind of experiment: κ-opioid receptor [35S]GTPγS functional assay, U-2 OS cells (Table 5). The note with it: for Emax: relative to U69,593; for EC50: κ GTP. The method, then:
κ-Opioid Receptor Functional Assay Procedures: Functional [^35S]GTPγS binding assays were conducted as follows. κ opioid receptor membrane solution was prepared by sequentially adding final concentrations of 0.026 μg/μl κ membrane protein (in-house), 10 μg/mL saponin, 3 μM GDP and 0.20 nM [^35S]GTPγS to binding buffer (100 mM NaCl, 10 mM MgCl2, 20 mM HEPES, pH 7.4) on ice. The prepared membrane solution (190 μl/well) was transferred to 96-shallow well polypropylene plates containing 10 μl of 20× concentrated stock solutions of agonist prepared in DMSO. Plates were incubated for 30 min at a temperature of about 25° C. with shaking. Reactions were terminated by rapid filtration onto 96-well Unifilter GF/B filter plates (Perkin Elmer, Shelton, Conn.) using a 96-well tissue harvester (Packard) and followed by three filtration washes with 200 μl ice-cold binding buffer (10 mM NaH2PO4, 10 mM Na2HPO4, pH 7.4). Filter plates were subsequently dried at 50° C. for 2-3 hours. Fifty μl/well scintillation cocktail (Perkin Elmer, Shelton, Conn.) was added and plates were counted in a Packard Top-Count for 1 min/well.
κ GTP Emax (%) is the maximal effect elicited by a compound relative to the effect elicited by U69,593.
The following TABLE 5 provides results on the activity response of certain Compounds of the Invention at the μ- and κ-opioid receptors determined as described above using U-2 OS cells.

Assay [1] concerns the target T1, μ-opioid receptor (Homo sapiens (Human), UniProt P35372). As to the kind of experiment: μ-opioid receptor [35S]GTPγS functional assay, U-2 OS cells (Table 5). The settings on record: for Emax: relative to DAMGO; for EC50: μ GTP. How it is done: μ-Opioid Receptor Functional Assay Procedures: [^35S]GTPγS functional assays were conducted using freshly thawed μ-receptor membranes prepared in-house from a cell line expressing recombinant μ opioid receptor in a HEK-293, CHO or U-2 OS cell background, or purchased from a commercial source (Perkin Elmer, Shelton, Conn.; or DiscovRx, Fremont, Calif.). Assay reactions were prepared by sequentially adding the following reagents to binding buffer (100 mM NaCl, 10 mM MgCl2, 20 mM HEPES, pH 7.4) on ice (final concentrations indicated): membrane protein (0.026 mg/mL), saponin ([…]), GDP ([…]) and [^35S]GTPγS (0.20 nM; Perkin Elmer, Shelton, Conn.). The prepared membrane solution (190 μl/well) was transferred to 96-shallow well polypropylene plates containing 10 μl of 20× concentrated stock solutions of the agonist [D-Ala^2, N-methyl-Phe^4 Gly-ol^5]-enkephalin (DAMGO) prepared in dimethyl sulfoxide (DMSO). Plates were incubated for 30 min at about 25° C. with shaking Reactions were terminated by rapid filtration onto 96-well Unifilter GF/B filter plates (Perkin Elmer, Shelton, Conn.) using a 96-well tissue harvester (Perkin Elmer, Shelton, Conn.) followed by three filtration washes with 200 μl of ice-cold wash buffer (10 mM NaH2PO4, 10 mM Na2HPO4, pH 7.4). Filter plates were subsequently dried at 50° C. for 2-3 hours. BetaScint scintillation cocktail (Perkin Elmer, Shelton, Conn.) was added (50 μl/well) and plates were counted using a Packard Top-Count for 1 min/well. Data were analyzed using the sigmoidal dose-response curve fitting functions in GraphPad PRISM v. 3.0, or an in-house function for non-linear, sigmoidal dose-response curve-fitting. [^35S]GTPγS functional assays can also be conducted using freshly thawed μ-receptor membranes prepared from a cell line expressing recombinant μ opioid receptor in a CHO-K1 cell background.
μ GTP Emax (%) is the maximal effect elicited by a compound relative to the effect elicited by DAMGO, a standard μ agonist.
For orientation: GTPγS resists hydrolysis and so accumulates on activated G proteins.

In assay [2] the target is T1, μ-opioid receptor. Put plainly: μ-opioid receptor [35S]GTPγS functional assay, HEK-293 cells (Table 6). The note with it: for Emax: relative to DAMGO; for EC50: μ GTP. In outline:
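[35S]GTPγS (0.20 nM) binding in HEK-293 membranes expressing recombinant receptor (0.026 mg/mL protein), with GDP (3 mM) and saponin, HEPES buffer pH 7.4, 30 min at about 25° C. Bound radioactivity collected by filtration and counted. Emax (%) expressed relative to DAMGO from sigmoidal dose-response fits.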

For the compound `N[C@H]1CC23CCN(CC4CC4)[C@H](Cc4ccc(O)cc42)[C@]3(O)C1` (stereo in doubt) [Compound 29, (2S,3aS,4R,9bS)-2-amino-12-(cyclopropylmethyl)-1,2,3,3a,4,5-hexahydro-4,9b-(epiminoethano)-cyclopenta[a]naphthalene-3a,8-diol], on κ-opioid receptor, the Emax was found to be 107 ± 3.18% and the EC50 was 0.62 ± 0.04 nM. For the same compound, at μ-opioid receptor [1], the Emax is 22 ± 1.73% and the midpoint of the response, the EC50, lay at 0.00778 ± 0.00163 µM.
For `CN(C)C(=O)[C@@H]1C[C@]23CCN(CC4CC4)[C@H](Cc4ccc(O)cc42)[C@]3(O)C1` [Compound 62, (2R,3aS,4R,9bS)-12-(cyclopropylmethyl)-3a,8-dihydroxy-N,N-dimethyl-1,2,3,3a,4,5-hexahydro-4,9b-(epiminoethano)cyclo-penta[a]naphthalene-2-carboxamide] the same measures were 109 ± 3.67%, 23.6 ± 1.09 nM, 25 ± 0.58% and 0.017 ± 0.00331 µM.
For `O=C([C@H]1C[C@]23CCN(CC4CC4)[C@H](Cc4ccc(O)cc42)[C@]3(O)C1)N1CCCCC1` [Compound 57, ((2S,3aS,4R,9bS)-12-(cyclopropylmethyl)-3a,8-dihydroxy-1,2,3,3a,4,5-hexahydro-4,9b-(epiminoethano)cyclopenta-[a]naphthalen-2-yl)(piperidin-1-yl)methanone] the same measures were 90.3 ± 2.6%, 5.88 ± 0.79 nM, 37.7 ± 6.69% and 0.00279 ± 0.00076 µM.
For `CCN(CC)C(=O)[C@@H]1C[C@]23CCN(CC4CC4)[C@H](Cc4ccc(O)cc42)[C@]3(O)C1` [Compound 59, (2R,3aS,4R,9bS)-12-(cyclopropylmethyl)-N,N-diethyl-3a,8-dihydroxy-1,2,3,3a,4,5-hexahydro-4,9b-(epiminoethano)cyclo-penta[a]naphthalene-2-carboxamide], in that order: 105 ± 4.33%, 26 ± 2.61 nM, 25.7 ± 0.33% and 0.0226 ± 0.00631 µM.
As for `COc1ccc2c(c1)[C@]13CCN(CC4CC4)[C@H](C2)[C@]1(O)C[C@H](N)C3` [Compound 21, (2R,3aS,4R,9bS)-2-amino-12-(cyclopropylmethyl)-8-methoxy-1,2,3,3a,4,5-hexahydro-4,9b-(epimino-ethano)cyclopenta[a]naphthalene-3a-ol], the Emax on κ-opioid receptor came out at 90 ± 2.08%; on μ-opioid receptor [1] it was 8.67 ± 1.76%. Moreover, the EC50 at κ-opioid receptor is 5590 ± 738 nM; at μ-opioid receptor [1] (bound given in μM) it was above 20 µM.
On to `O=C([C@@H]1C[C@]23CCN(CC4CC4)[C@H](Cc4ccc(O)cc42)[C@]3(O)C1)N1CCCCC1` [Compound 56, ((2R,3aS,4R,9bS)-12-(cyclopropylmethyl)-3a,8-dihydroxy-1,2,3,3a,4,5-hexahydro-4,9b-(epiminoethano)cyclopenta-[a]naphthalen-2-yl)(piperidin-1-yl)methanone], for which, at κ-opioid receptor, the Emax was 97.8 ± 3.67% and it took 20.8 ± 1.79 nM to reach a half-maximal effect (EC50). On μ-opioid receptor [1], the Emax turned out to be 16 ± 1.53% and the EC50 was found to be 0.0104 ± 0.00203 µM.
Turning to `COc1ccc2c(c1)[C@]13CCN(CC4CC4)[C@H](C2)[C@]1(O)C[C@@H](C(=O)N1CCCC1)C3` [Compound 20, ((2S,3aS,4R,9bS)-12-(cyclopropylmethyl)-3a-hydroxy-8-methoxy-1,2,3,3a,4,5-hexahydro-4,9b-(epiminoethano)cyclo-penta[a]naphthalene-2-yl)(pyrrolidin-1-yl)methanone], at κ-opioid receptor, the Emax was determined as 87.7 ± 4.33% and the EC50 was determined as 4400 ± 357 nM. Besides, at μ-opioid receptor [1], the Emax amounted to 43.3 ± 2.4% and the response was half-maximal at 1.23 ± 0.0835 µM (EC50).
For `COc1ccc2c(c1)[C@]13CCN(CC4CC4)[C@H](C2)[C@]1(O)C[C@@H](C#N)C3` [Compound 26, (2S,3aS,4R,9bS)-12-(cyclopropylmethyl)-3a-hydroxy-8-methoxy-1,2,3,3a,4,5-hexahydro-4,9b-(epiminoethano)-cyclopenta[a]naphthalene-2-carbonitrile], the values for the Emax at κ-opioid receptor and on μ-opioid receptor [1] were 106 ± 2.03% and 63 ± 5.77%, respectively. Moreover, the EC50 is 829 ± 100 nM at κ-opioid receptor and 1.13 ± 0.117 µM at μ-opioid receptor [1].
Consider `Cc1ccc(CNC(=O)[C@@H]2C[C@]34CCN(CC5CC5)[C@H](Cc5ccc(C(N)=O)cc53)[C@]4(O)C2)cc1` [Compound 117, (2R,3aS,4R,9bS)-12-(cyclopropylmethyl)-3a-hydroxy-N^2-(4-methylbenzyl)-1,2,3,3a,4,5-hexahydro-4,9b-(epimino-ethano)cyclopenta[a]naphthalene-2,8-dicarboxamide], for which the Emax on μ-opioid receptor [2] was -1.21 ± 0.21%. In addition, the EC50 at μ-opioid receptor [2] (bound given in μM) is above 20 µM.
For `CN(C)CCN(C)C(=O)[C@@H]1C[C@]23CCN(C)[C@H](Cc4ccc(O)cc42)[C@]3(O)C1` [Compound 113, (2R,3aS,4R,9bS)-N-(2-(dimethylamino)-ethyl)-3a,8-dihydroxy-N,12-dimethyl-1,2,3,3a,4,5-hexahydro-4,9b-(epimino-ethano)cyclopenta[a]naphthalene-2-carboxamide] the same measures were -1% and above 20 µM.
As for `O=C(NCCN1CCCCC1)[C@H]1C[C@]23CCN(CC4CC4)[C@H](Cc4ccc(O)cc42)[C@]3(O)C1` [Compound 133, (2S,3aS,4R,9bS)-12-(cyclopropylmethyl)-3a,8-dihydroxy-N-(2-(piperidin-1-yl)ethyl)-1,2,3,3a,4,5-hexahydro-4,9b-(epiminoethano)cyclopenta[a]naphthalene-2-carboxamide], at μ-opioid receptor [2], the Emax was determined as 29.8 ± 1.22% and a half-maximal effect (EC50) was put at 0.0142 ± 0.00373 µM.
For the compound `N#Cc1ccc2c(c1)[C@]13CCN(CC4CC4)[C@H](C2)[C@]1(O)C[C@H](C(=O)NCCN1CCOCC1)C3` [Compound 122, (2R,3aS,4R,9bS)-8-cyano-12-(cyclopropylmethyl)-3a-hydroxy-N-(2-morpholinoethyl)-1,2,3,3a,4,5-hexahydro-4,9b-(epiminoethano)cyclopenta-[a]naphthalene-2-carboxamide], on μ-opioid receptor [2], the Emax worked out at 0.33 ± 0.67%. The EC50 at μ-opioid receptor [2] (bound given in μM) is above 20 µM.
Regarding `CN1CC[C@]23C[C@@H](C(=O)NCCc4ccccc4)C[C@@]2(O)[C@H]1Cc1ccc(O)cc13` [Compound 100, (2R,3aS,4R,9bS)-3a,8-dihydroxy-12-methyl-N-phenethyl-1,2,3,3a,4,5-hexahydro-4,9b-(epiminoethano)cyclo-penta[a]naphthalene-2-carboxamide], at μ-opioid receptor [2], the Emax worked out at 50.3 ± 0.33% and a half-maximal effect (EC50) was put at 1.1 ± 0.188 µM.
Consider `O=C(NCc1ccc(F)cc1F)[C@@H]1C[C@]23CCN(CC4CC4)[C@H](Cc4ccc(O)cc42)[C@]3(O)C1` [Compound 147, (2R,3aS,4R,9bS)-12-(cyclopropylmethyl)-N-(2,4-difluorobenzyl)-3a,8-dihydroxy-1,2,3,3a,4,5-hexahydro-4,9b-(epimino-ethano)cyclopenta[a]naphthalene-2-carboxamide], for which, on μ-opioid receptor [2], the Emax is -1%. At μ-opioid receptor [2] (bound given in μM), this compound showed an EC50 above 20 µM.
For `Cc1ccc(CNC(=O)[C@@H]2C[C@]34CCN(CC5CC5)[C@H](Cc5ccc(O)cc53)[C@]4(O)C2)cc1Cl` [Compound 126, (2R,3aS,4R,9bS)-N-(3-chloro-4-methylbenzyl)-12-(cyclopropylmethyl)-3a,8-dihydroxy-1,2,3,3a,4,5-hexahydro-4,9b-(epiminoethano)cyclopenta-[a]naphthalene-2-carboxamide] the same measures were -1% and above 20 µM.

What is called Emax is the greatest response seen or fitted, relative to the assay's reference. In general, EC50 refers to the concentration at which the effect is half-maximal. Read a low EC50 as greater potency.

Values taken from patent publication US9656962B2, “Ring-contracted morphinans and the use thereof” (Purdue Pharma L.P., priority 2013, dated 2017).
